{"source": "patent US20130296331A1", "about": "“COMPOSITIONS AND METHODS FOR AMELIORATING RENAL DYSFUNCTION INDUCED BY RENAL HYPOPERFUSION OR ACUTE KIDNEY INJURY” (Technion Research and Development Foundation Ltd., priority 2010, published 2013)", "key": {"[1]": {"test_system": "rats subjected to IAP of 14 mm Hg", "details": "rat, in vivo; cited from earlier work"}, "[2]": {"test_system": "rats with decompensated CHF", "experiment": "Pneumoperitoneum (incremental IAP) in rats with decompensated CHF induced by aorto-caval fistula", "format": "in vivo, rat", "details": "pretreated 10 mg/kg/day for 4 days", "from_the_text": "CHF was induced by surgical creation of aorto-caval fistula (ACF) between the abdominal aorta and the vena cava, as schematically shown in FIG. 1. […] Similar pattern was reported in clinical CHF.\n(§1) The abdomen was opened via small incision in the lower third between the xiphoid and pubis and the urinary bladder was catheterized for urine collection. A Veress needle was inserted into the abdominal cavity and connected to the CO2 gas supply to maintain intra-abdominal pressure (IAP) at the desired level using a special insufflator (Aesculap, Tuttlingen, Germany). The muscle and skin layers of the abdominal wall were closed separately by silk sutures in an airtight manner (FIG. 2).\n(§2) Male Sprague-Dawley rats were organized into several groups. Normal rats, rats with compensated or decompensated CHF (n=12-13), and rats with MI (n=7) were subjected to IAP of 0 (baseline), 7, 10 or 14 mmHg, over 45-60 min for each pressure, followed by deflation period of 60 min (recovery), as illustrated in Scheme 1. Six additional rats with decompensated CHF and seven additional rats with MI were pretreated with the phosphodiesterase type 5 (PDE5) inhibitor Cialis® (tadalafil; 10 mg/kg/day) for 4 days prior to the experiment. Urine flow rate (V), absolute Na^+ excretion (UNaV), glomerular filtration rate (GFR), renal plasma flow (RPF) and blood pressure were determined throughout the experiments.\nIn this study, the effects of the phosphodiesterase type 5 (PDE5) inhibitor Cialis® (tadalafil), administered as described in Materials and Methods, on the adverse effects of incremental IAP, simulating pneumoperitoneum, on GFR, RPF, urinary flow rate (V), urinary sodium excretion (UNaV) and urinary cGMP excretion (UcGMP), in rats with decompensated CHF were tested."}, "[3]": {"test_system": "rats with ischemic acute kidney injury", "experiment": "Experimental acute kidney injury induced by warm renal ischemia of 45 min (renal artery clamping)", "format": "in vivo, rat", "details": "rats pretreated before renal ischemia of 45 min", "protocol": "Male Sprague Dawley rats weighing 300-350 gr were housed under standardized conditions for 2-3 days. Following an overnight fast, the animals were anaesthetized with an inactin anesthesia (100 mg/kg, IP) and placed on a controlled heating (thermoregulated) table keeping the body temperature at 37° C. Polyethylene tubes (PE50) were inserted into the right carotid artery for blood pressure monitoring and blood sampling, and into the jugular vein for infusion of 0.9% normal saline (0.9% NaCl) at a 1.5 ml/h rate, as well as 2% inulin and 1% para-aminohippuric acid (PAH) at a rate of 1.5 ml/h, by syringe pumps. Arterial blood pressure was continuously monitored with a pressure transducer connected to the carotid arterial line. Additional two catheters were inserted after a supravesical incision into the bladder for urine collection. In order to minimize dehydration, the abdominal area was covered with saline-soaked gauze. After 2 baseline urine collections, the left renal artery and vein were dissected and the perirenal fat was preserved. […] Urinary samples were analyzed for neutrophil gelatinase-associated lipocalcin (NGAL) and kidney injury molecule 1 (KIM-1), two novel biomarkers of renal damage. […] The levels of NGAL and KIM-1 were determined in urine samples prior to acute kidney injury (AKI) and at various time points following renal artery clamping."}, "rats with MI": {"test_system": "rats with MI", "experiment": "Pneumoperitoneum (incremental IAP) in rats with myocardial infarction (LAD occlusion)", "format": "in vivo, rat", "details": "pretreated 10 mg/kg/day for 4 days", "protocol": "Rats were anesthetized with a combination of ketamine (87 mg/kg) and xylazine (13 mg/kg), intubated, and mechanically ventilated at a rate of 80-90 cycles per minute with a tidal volume of 1-2 ml/100 gr. MI was induced by the most common method. Specifically, the left anterior descending (LAD) artery was completely and permanently occluded. Consequently, a large area of the left ventricle wall was deprived of its blood supply, and was thus exposed to hypoxia, ischemia, nutrient starvation and other conditions that develop under these circumstances. Seven days after LAD inclusion, the rats were used in the experimental model of pneumoperitoneum described below.\nas §1, §2\nIn this study we tested whether rats with heart failure induced by myocardial infarction (MI) display renal susceptibility to IAP similar to that of rats with CHF induced by the creation of ACF. As expected and shown in FIGS. 9A-9D, rats with MI had lower basal GFR and RPF compared with control animals. […] These adverse effects were more profound in rats with MI as compared with sham controls."}}}
{"molecule": "O=[N+]([O-])OCC(CO[N+](=O)[O-])O[N+](=O)[O-]", "note": "[nitroglycerine]", "values": [{"measurement": "IAP-induced renal dysfunction (decreased renal excretory function and hypofiltration)", "setting": "[1]", "value": "partially ameliorated"}]}
{"molecule": "CN1CC(=O)N2[C@H](c3ccc4c(c3)OCO4)c3[nH]c4ccccc4c3C[C@@H]2C1=O", "note": "[Cialis®, (6R-trans)-6-(1,3-benzodioxol-5-yl)-2,3,6,7,12,12a-hexahydro-2-methyl-pyrazino[1′,2′:1,6]pyrido[3,4-b]indole-1,4-dione]", "values": [{"measurement": "adverse effects of increased IAP on urinary flow rate (V)", "setting": "[2]; FIG. 7A", "value": "abolished"}, {"measurement": "adverse effects of increased IAP on urinary sodium excretion (UNaV)", "setting": "[2]; FIG. 7B", "value": "abolished"}, {"measurement": "inhibitory effect of IAP on urinary cGMP excretion (UcGMP V)", "setting": "[2]; FIG. 8", "value": "prevented"}, {"measurement": "adverse effects of increased IAP on GFR", "setting": "[2]; IAP 7, 10, 14 mmHg, FIGS. 6A-6B", "value": "remarkably attenuated"}, {"measurement": "adverse effects of increased IAP on RPF", "setting": "[2]; IAP 7, 10, 14 mmHg, FIGS. 6C-6D", "value": "remarkably attenuated"}, {"measurement": "urinary excretion of NGAL", "setting": "[3]; FIG. 13A", "value": "significantly attenuated"}, {"measurement": "urinary excretion of KIM-1", "setting": "[3]; FIG. 13B", "value": "significantly attenuated"}, {"measurement": "inhibitory effect of IAP on urinary cGMP excretion (UcGMP V)", "setting": "rats with MI; FIG. 11", "value": "significantly attenuated"}, {"measurement": "adverse effects of pneumoperitoneum on GFR", "setting": "rats with MI; FIGS. 9A-9B", "value": "substantially attenuated"}, {"measurement": "adverse effects of pneumoperitoneum on RPF", "setting": "rats with MI; FIGS. 9C-9D", "value": "substantially attenuated"}, {"measurement": "adverse effects of pneumoperitoneum on urinary flow rate (V)", "setting": "rats with MI; IAP 14 mmHg, FIG. 10A", "value": "partially ameliorated"}, {"measurement": "adverse effects of pneumoperitoneum on urinary sodium excretion (UnaV)", "setting": "rats with MI; IAP 14 mmHg, FIG. 10B", "value": "partially ameliorated"}]}
